We go through one compound from US20050033056A1, “Hydroxylated indole derivatives and uses thereof” (priority 2001, published 2005).

The structures appear in SMILES notation.

The series deals with pooled human liver microsomal preparations (HLM). Put plainly: Compound 1 metabolism / metabolite formation in reconstituted system with pooled HLM. In kind it is in vitro ADME. To be noted: estimated by UV absorbance at 270 nm, metabolite formed or Compound 1 left after 1 hour with NADPH. The protocol:
The metabolism of Compound 1 was determined by the disappearance of Compound 1 or the appearance of Compound 1 metabolites in reaction mixtures as compared to respective controls. Compound 1 was incubated in the reconstituted in vitro reaction systems containing pooled human liver S9 fractions, microsomal preparations, or recombinant hepatic CYP forms, including CYP1A2, CYP2C9, CYP2C19, CYP2D6, CYP2E1, and CYP3A4. The reaction mixture (total volume of 250 μL) contained 0.5 mg of liver microsomal protein, 50 or 25 pmol of recombinant CYP, and Compound 1 (50-80 μM) in 50 mM Tris buffer containing 15 mM MgCl2 (pH 7.4). After incubating at 37° C. with gentle shaking for 1 minute, the reaction was initiated by adding 25 μL of NADPH solution (20 mg/mL), and was carried out for 1 hour. The reaction was terminated by quickly cooling the test tube on ice, followed by the addition of an equal volume of 100% methanol. The samples were centrifuged in a desktop centrifuge at 14,000 rpm for 5 minutes, and the supernatants were filtered through syringe filters (13 mm, 0.45 μm). The filtrates were subjected to analysis using LC/MS (ion trap) or LC/MS/MS.
1. […] The detector was monitored at 270 nm, which is the UVmax of Compound 1 predetermined by scanning between 225-400 nm using a photodiode array detector (PDA). […]

As for `CNC(=O)Cc1ccc2ccn(C3CCN(CCc4ccccc4F)CC3)c2c1` [Compound 1, N-methyl-[1-[1-(2-fluorophenethyl)piperidine-4-yl]-1H-indol-6-yl] acetamide], the “Rel. Amount (%)” value was 36%.
